From patent US20240238300A1, “TREATMENT METHODS FOR SUBJECTS WITH CANCER HAVING AN ABERRATION IN EGFR AND/OR HER2” (TAIHO PHARMACEUTICAL CO., LTD., priority 2021, published 2024)

Columns and labels:
BLK = BLK (Homo sapiens, UniProt P51451); assay: panel enzyme assay of 257 kinases; type: biochemical; conditions: read-out: % Inhibition by Compound (1) at 1000 nmol/L
Procedure: (§1) To investigate further kinase selectivity of Compound (1), a panel enzyme assay of 257 kinases for Compound (1) was conducted.

BMX = BMX (Homo sapiens, UniProt P51813); assay: panel enzyme assay of 257 kinases; type: biochemical; conditions: read-out: % Inhibition by Compound (1) at 1000 nmol/L
Procedure: as §1

HER4 = HER4 (Homo sapiens, UniProt Q15303); assay: panel enzyme assay of 257 kinases; type: biochemical; conditions: read-out: % Inhibition by Compound (1) at 1000 nmol/L
Procedure: as §1

JAK3 = JAK3 (Homo sapiens, UniProt P52333); assay: panel enzyme assay of 257 kinases; type: biochemical; conditions: read-out: % Inhibition by Compound (1) at 1000 nmol/L
Procedure: as §1

DDR1 = DDR1 (Homo sapiens, UniProt Q08345); assay: panel enzyme assay of 257 kinases; type: biochemical; conditions: read-out: % Inhibition by Compound (1) at 1000 nmol/L
Procedure: as §1

EGFR = EGFR (Homo sapiens, UniProt P00533); assay: panel enzyme assay of 257 kinases; type: biochemical; conditions: read-out: % Inhibition by Compound (1) at 1000 nmol/L
Procedure: as §1

[1] = system: intracranial NCI-N87-luc human gastric carcinoma xenografts; assay: intracranial antitumor effect with various dosing schedules, NCI-N87-luc xenografts; type: in vivo, nude mice; conditions: Day 22; for T/C ratio of the mean total flux: 21 days
Procedure: The intracranial antitumor effect of Compound (1) with various dosing schedules ((i) QD, (ii) intermittent, and (iii) 4 days-on/3 days-off) was evaluated using Compound (1) in nude mice intracranially implanted with NCI-N87-luc cells, which were engineered to stably express the luciferase gene using the HER2-overexpressing NCI-N87 human gastric carcinoma cell line.
Compound (1) dosing suspensions using 0.5% weight per volume (w/v) hydroxypropyl methylcellulose (HPMC) as vehicle were prepared with Compound (1) at 2 dose levels (25.0 or 50.0 mg/kg/day) and orally administered with various dosing schedules ((i) QD, (ii) intermittent, and (iii) 4 days-on/3 days-off) for 21 days. The (i) QD dosing schedule in this example was dosing every day on day 1 to day 21. The (ii) intermittent dosing schedule in this example used sequential 7-day periods that each comprise alternating 4 days-on and 3 days-off. That is, this schedule involved dosing on days 1, 3, 5, 7, 8, 10, 12, 14, 15, 17, 19, and 21. The (iii) 4 days-on/3 days-off dosing schedule was dosing on days 1, 2, 3, 4, 8, 9, 10, 11, 15, 16, 17, and 18. The control group received 0.5% w/v HPMC solution orally once daily for 21 days.

A-431 cells = assay: growth inhibitory effect in human cancer cell lines (GI50); type: cell-based; conditions: wild-type EGFR gene amplification
Excerpt: (§2) Wild-type EGFR gene amplification without HER2 amplification has been observed in A-431 cells. HCC827 cells (lung cancer) have been reported as harboring an EGFR activating mutation (DelE746_A750). NCI-H1975 cells (lung cancer) have been reported as having activating and acquired EGFR resistance mutations (L858R and T790M).

HCC827 cells = assay: as above; type: cell-based; conditions: lung cancer, EGFR DelE746_A750
Excerpt: as §2

NCI-H1975 cells = assay: as above; type: cell-based; conditions: lung cancer, EGFR L858R and T790M
Excerpt: as §2

human P-gp = biological target: T1, human P-gp (Homo sapiens, UniProt P08183); assay: inhibitory effect on human P-gp, bidirectional transport of [^3H]digoxin; type: in vitro ADME
T1 construct: expressed in transfected cells; host or cells: LLC-PK1 (porcine kidney) cells expressing human P-gp; mock/LLC-PK1 as control
Excerpt: Inhibitory effect of Compound (1) on human P-gp. […] The net flux ratios at the Compound (1) concentrations of 0.01, 0.1, 1, 5, 10, and 100 μmol/L were 5.6±1.0, 5.5±0.7, 6.5±0.5, 2.8±0.5, 1.3±0.2, and 1.0±0.1, respectively. The percent of controls at the Compound (1) concentrations at 0.01, 0.1, 1, 5, 10, and 100 μmol/L were 112%, 110%, 135%, 45%, 7%, and 1%, respectively.

[2] = system: NCI-N87 human gastric carcinoma xenografts; assay: antitumor effect in nude mice bearing NCI-N87 xenografts; type: in vivo; conditions: 12.5 mg/kg/day orally once daily 14 days, Day 15
Procedure: The antitumor effect of Compound (1) was evaluated in nude mice bearing HER2-overexpressing NCI-N87 human gastric carcinoma xenografts. Compound (1) dosing suspensions using 0.5% w/v hydroxypropyl methylcellulose (HPMC) as vehicle were prepared at 4 dose levels (3.1, 6.3, 12.5, and 25.0 mg/kg/day) and administered orally once daily for 14 days. In addition, the antitumor effect of poziotinib, which is a pan-ErbB inhibitor and currently under clinical development for the treatment of cancer with epidermal growth factor receptor containing HER2 exon 20 insertion mutations, was also evaluated using this model. Poziotinib was administered orally once daily for 14 days at 2 dose levels (0.5 or 1.0 mg/kg/day). The control group received 0.5% w/v HPMC once daily for 14 days.

[3] = system: NCI-N87 tumor fragment #6, clone 3; assay: refractory T-DM1 monoclonal cell line model, comparison to DS-8201a; type: in vivo, male mice; conditions: for antitumor effect (tumor volume): 21 days
Procedure: The obtained cell line was implanted into BALB/cAJcl-mu/nu male mice (8.0×10^6 cells in 100 μL of PBS/mouse, subcutaneous) for the efficacy test.
The tumor volumes (TV, mm) and body weights of the mice were recorded.

[4] = system: MCF10A_HER2/insYVMA cells; assay: growth inhibitory effect in human cancer cell lines (GI50); type: cell-based; conditions: engineered to express HER2 A775_G776insYVMA
[5] = (ii) intermittent 50.0 mg/kg/day
[6] = (iii) 4 days-on/3 days-off 50.0 mg/kg/day

T1 sequence (P08183 whole entry): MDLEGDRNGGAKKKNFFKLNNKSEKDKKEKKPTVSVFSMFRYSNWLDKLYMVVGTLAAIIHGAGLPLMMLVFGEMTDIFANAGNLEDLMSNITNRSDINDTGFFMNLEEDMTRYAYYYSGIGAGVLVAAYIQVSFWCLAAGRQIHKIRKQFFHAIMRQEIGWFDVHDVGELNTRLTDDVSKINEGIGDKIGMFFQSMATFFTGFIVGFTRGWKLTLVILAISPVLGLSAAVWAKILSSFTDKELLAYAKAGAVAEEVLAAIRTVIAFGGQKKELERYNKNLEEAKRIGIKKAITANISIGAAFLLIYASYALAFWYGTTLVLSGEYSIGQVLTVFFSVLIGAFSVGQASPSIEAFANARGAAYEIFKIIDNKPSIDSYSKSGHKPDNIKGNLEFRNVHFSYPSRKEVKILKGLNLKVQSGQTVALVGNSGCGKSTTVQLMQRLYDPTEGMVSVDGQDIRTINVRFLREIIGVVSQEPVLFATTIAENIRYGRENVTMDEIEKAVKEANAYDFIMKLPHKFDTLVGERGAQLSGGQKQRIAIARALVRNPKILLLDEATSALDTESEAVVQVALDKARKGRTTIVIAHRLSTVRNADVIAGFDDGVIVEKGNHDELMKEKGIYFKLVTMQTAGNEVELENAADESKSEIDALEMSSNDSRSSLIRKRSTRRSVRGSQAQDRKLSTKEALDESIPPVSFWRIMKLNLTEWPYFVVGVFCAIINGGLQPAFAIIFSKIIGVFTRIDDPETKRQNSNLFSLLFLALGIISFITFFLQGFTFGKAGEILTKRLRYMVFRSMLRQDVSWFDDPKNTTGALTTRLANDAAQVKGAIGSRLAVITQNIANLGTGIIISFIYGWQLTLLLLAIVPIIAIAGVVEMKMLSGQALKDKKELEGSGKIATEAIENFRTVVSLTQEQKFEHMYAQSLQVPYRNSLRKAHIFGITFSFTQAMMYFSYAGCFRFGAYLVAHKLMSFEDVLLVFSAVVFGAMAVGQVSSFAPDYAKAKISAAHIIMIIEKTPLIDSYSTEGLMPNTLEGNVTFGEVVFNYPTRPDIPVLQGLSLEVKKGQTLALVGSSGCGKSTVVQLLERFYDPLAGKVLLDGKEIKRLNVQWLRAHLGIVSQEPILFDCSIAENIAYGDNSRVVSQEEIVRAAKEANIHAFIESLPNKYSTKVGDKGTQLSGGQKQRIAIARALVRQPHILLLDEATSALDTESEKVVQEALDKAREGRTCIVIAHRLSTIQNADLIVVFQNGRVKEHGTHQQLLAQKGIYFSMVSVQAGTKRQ
Chain of JAK3 (P52333 whole entry, species assumed): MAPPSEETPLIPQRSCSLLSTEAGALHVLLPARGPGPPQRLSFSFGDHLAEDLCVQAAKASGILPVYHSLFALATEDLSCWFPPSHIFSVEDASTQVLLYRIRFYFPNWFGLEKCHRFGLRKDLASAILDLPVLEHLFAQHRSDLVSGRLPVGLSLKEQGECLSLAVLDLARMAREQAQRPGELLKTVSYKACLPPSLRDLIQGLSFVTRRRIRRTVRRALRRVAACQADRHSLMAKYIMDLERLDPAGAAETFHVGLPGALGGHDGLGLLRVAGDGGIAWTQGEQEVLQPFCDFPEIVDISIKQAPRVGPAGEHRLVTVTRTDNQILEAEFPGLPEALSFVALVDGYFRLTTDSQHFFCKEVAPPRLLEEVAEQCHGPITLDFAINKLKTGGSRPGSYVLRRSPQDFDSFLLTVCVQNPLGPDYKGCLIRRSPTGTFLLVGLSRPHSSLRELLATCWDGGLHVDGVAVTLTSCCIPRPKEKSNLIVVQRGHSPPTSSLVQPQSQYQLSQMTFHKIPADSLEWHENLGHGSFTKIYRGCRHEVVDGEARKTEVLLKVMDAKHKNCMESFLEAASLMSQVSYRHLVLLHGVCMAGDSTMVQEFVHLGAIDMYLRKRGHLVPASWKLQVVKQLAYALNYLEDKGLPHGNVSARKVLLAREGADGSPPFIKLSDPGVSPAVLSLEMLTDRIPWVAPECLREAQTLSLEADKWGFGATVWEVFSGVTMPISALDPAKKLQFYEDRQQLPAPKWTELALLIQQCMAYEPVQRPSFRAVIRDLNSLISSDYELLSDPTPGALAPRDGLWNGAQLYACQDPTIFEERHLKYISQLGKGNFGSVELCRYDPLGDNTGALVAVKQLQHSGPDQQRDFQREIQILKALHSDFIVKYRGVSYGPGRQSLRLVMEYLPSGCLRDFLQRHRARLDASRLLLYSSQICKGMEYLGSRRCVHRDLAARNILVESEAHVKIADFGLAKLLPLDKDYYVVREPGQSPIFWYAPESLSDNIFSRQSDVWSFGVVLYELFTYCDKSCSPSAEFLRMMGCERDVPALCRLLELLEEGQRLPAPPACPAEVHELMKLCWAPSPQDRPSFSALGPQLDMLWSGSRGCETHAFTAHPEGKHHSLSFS
Chain of BLK (P51451 whole entry, species assumed): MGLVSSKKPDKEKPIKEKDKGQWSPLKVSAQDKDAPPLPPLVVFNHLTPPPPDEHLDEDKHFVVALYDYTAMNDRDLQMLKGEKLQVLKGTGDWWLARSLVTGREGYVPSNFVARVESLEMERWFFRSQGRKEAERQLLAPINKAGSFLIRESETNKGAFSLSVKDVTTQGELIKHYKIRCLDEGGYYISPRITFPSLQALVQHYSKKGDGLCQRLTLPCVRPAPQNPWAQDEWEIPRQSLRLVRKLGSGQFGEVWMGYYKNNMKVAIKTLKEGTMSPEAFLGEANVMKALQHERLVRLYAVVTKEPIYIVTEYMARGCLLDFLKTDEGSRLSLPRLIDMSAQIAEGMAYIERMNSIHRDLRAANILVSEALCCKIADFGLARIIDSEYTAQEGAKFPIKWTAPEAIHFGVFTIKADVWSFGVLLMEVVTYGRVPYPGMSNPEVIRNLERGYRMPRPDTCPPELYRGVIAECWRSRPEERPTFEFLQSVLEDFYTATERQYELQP
Chain of DDR1 (Q08345 19-913, species assumed): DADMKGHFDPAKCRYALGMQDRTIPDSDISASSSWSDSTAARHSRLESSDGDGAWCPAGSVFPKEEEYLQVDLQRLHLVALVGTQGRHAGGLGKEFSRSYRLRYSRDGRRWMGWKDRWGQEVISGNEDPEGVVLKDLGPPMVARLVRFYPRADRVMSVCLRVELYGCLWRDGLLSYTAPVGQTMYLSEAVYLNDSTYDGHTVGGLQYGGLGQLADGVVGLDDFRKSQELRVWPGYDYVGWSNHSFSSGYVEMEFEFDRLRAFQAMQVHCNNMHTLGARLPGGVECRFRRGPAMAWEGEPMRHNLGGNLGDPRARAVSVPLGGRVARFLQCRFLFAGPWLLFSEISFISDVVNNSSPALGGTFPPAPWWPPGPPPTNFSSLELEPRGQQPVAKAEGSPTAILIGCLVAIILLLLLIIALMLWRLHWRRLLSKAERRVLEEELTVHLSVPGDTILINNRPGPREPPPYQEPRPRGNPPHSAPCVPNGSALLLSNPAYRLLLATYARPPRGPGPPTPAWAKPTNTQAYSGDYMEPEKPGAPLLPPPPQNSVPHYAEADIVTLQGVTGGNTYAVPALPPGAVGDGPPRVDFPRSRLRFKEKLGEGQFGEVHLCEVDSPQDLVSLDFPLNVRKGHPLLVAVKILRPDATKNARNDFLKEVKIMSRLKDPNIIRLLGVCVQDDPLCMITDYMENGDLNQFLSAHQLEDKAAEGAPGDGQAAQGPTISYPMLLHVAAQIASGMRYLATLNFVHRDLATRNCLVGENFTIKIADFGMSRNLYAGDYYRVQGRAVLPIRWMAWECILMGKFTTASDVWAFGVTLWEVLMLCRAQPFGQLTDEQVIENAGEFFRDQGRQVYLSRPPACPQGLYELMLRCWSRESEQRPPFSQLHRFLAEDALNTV
Chain of BMX (P51813 whole entry, species assumed): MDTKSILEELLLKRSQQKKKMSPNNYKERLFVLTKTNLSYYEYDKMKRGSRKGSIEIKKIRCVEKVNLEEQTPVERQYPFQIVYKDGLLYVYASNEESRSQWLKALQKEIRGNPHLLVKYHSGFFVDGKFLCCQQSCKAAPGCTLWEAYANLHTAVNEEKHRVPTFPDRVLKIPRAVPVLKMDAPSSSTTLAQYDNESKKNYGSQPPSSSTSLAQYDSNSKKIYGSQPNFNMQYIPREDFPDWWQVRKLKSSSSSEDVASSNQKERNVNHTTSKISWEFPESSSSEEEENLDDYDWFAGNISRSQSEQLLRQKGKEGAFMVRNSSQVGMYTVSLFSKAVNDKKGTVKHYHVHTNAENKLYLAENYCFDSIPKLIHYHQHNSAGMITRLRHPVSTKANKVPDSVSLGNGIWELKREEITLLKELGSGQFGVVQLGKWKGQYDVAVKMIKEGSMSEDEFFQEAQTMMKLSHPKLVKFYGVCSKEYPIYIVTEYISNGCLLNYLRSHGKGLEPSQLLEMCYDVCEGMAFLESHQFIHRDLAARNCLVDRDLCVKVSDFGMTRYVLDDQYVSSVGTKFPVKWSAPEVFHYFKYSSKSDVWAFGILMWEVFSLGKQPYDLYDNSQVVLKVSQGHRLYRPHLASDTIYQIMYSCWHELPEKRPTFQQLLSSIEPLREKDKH

SMILES: C=CC(=O)N1C[C@H](n2c(C#CC3CC3)c(C(=O)N[C@H](C)c3ccccc3)c3c(N)ncnc32)C[C@@H]1C [Compound (1), 7-((3R,5S)-1-acryloyl-5-methylpyrrolidin-3-yl)-4-amino-6-(cyclopropylethynyl)-N—((R)-1-phenylethyl)-7H-pyrrolo[2,3-d]pyrimidine-5-carboxamide]
- inhibition at 1 µM (BLK): 64.7%
- inhibition at 1 µM (BMX): 98.9%
- inhibition at 1 µM (HER4): 98.4%
- inhibition at 1 µM (JAK3): 99.2%
- inhibition at 1 µM (DDR1): 86%
- inhibition at 1 µM (EGFR): 98.3%
- T/C ratio of the mean total flux [1, 5]: 3.8%
- mean body weight change [1, 5]: −1.0%
- T/C ratio of the mean total flux [1, 6]: 8.9%
- mean body weight change [1, 6]: 0.3%
- GI50 (A-431 cells): 8.64 ± 1.07 nM
- GI50 (HCC827 cells): 2.13 ± 0.61 nM
- GI50 (NCI-H1975 cells): 37.5 ± 20.4 nM
- IC50 (human P-gp): 3480 nM
- activity at 3 h, 0.01 μmol/L (human P-gp; human): 112%
- activity at 3 h, 0.1 μmol/L (human P-gp; human): 110%
- activity at 3 h, 1 μmol/L (human P-gp; human): 135%
- activity at 3 h, 5 μmol/L (human P-gp; human): 45%
- activity at 3 h, 10 μmol/L (human P-gp; human): 7%
- activity at 3 h, 100 μmol/L (human P-gp; human): 1%
- T/C ratio of the mean tumor volumes [2]: 7.3%
- antitumor effect (tumor volume) ([3]; 12.5 mg/kg/day PO once per day): arresting tumor growth
- antitumor effect (tumor volume) ([3]; 20 mg/kg/day PO once per day): inducing tumor regression
- body weight loss ([3]; 12.5 or 20 mg/kg): did not cause body weight loss
- GI50 [4]: 23.3 ± 1.4 nM
